Results as given in patent US12150995B2, “IRAK degraders and uses thereof” (Kymera Therapeutics, Inc., priority 2020, dated 2024).

molecular target: T1, IRAK4 (Homo sapiens, UniProt Q9NWZ3); assay: IRAK4 MSD Degradation in OCI-LY10; assay type: cell-based; settings: OCI-LY10 cells, Meso Scale Discovery, incubated 4 to 24 hours
T1 construct: endogenous in cells; host or cells: OCI-LY10
T1 sequence (Q9NWZ3 1-460): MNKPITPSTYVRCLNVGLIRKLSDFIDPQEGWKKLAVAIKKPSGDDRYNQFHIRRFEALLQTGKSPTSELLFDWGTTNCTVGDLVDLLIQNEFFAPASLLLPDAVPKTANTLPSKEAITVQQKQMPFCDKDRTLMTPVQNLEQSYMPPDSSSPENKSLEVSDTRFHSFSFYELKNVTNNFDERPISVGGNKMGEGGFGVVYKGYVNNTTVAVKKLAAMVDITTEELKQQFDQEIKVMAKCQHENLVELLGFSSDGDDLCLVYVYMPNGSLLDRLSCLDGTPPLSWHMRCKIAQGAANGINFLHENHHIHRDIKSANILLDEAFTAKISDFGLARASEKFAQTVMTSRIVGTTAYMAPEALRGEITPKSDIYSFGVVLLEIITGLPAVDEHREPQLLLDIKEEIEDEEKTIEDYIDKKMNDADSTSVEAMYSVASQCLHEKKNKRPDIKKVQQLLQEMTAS
Description: Degradation of IRAK4 in OCI-LY10 was quantitatively measured using Meso Scale Discovery technology. OCI-LY10 cells were seeded in 96-well plates (Corning 3799) with a density of 300,000 cells per well in 100 μL fresh media. Compounds were then added to the assay plates with a final top concentration of 1 to 10 μM in a 1:3 dilution series with total of 8 doses. The assay plates were then incubated for 4 to 24 hours at 37° C. under 5% CO2. The assay plates were then centrifuged for 5 minutes and the cell pellets were treated with 100 μL/well RIPA lysis buffer (Boston BioProducts BP-115D) with proteinase inhibitors. To prepare MSD assay plates (Meso Scale Discovery Catalog number L15XA-3), the plates were coated with 2 μg/mL capture antibody (mouse Anti-IRAK4 antibody [2H9], ab119942) in PBS, at 40 μL/well. The plates were then incubated overnight at 4° C., washed 3 times with 150 μL/well TBST buffer (Cell Signaling Technology, Catalog number 9997S) and blocked with 150 μL/well blocking buffer (Meso Scale Discovery Catalog number R93BA-4). Cell lysates were then added to MSD assay plates and the plates were incubated at room temperature for 1 hour. The plates were then washed 3 times with 150 μL/well TBST buffer and […] primary detection antibody (rabbit Anti-IRAK4 antibody [Y279], from Abcam. Catalog number ab32511, 1 μg/mL). The assay plates were then incubated at room temperature for 1 hour, washed 3 times with 150 μL/well TBST buffer and 254/well secondary detection antibody, SULFO-TAG anti-rabbit antibody were added (anti rabbit antibody from Meso Scale Discovery, Catalog number R32AB-1, 1 μg/mL). The assay plates were then incubated at room temperature for 1 hour, washed 3 times with 150 μL/well TBST buffer, and 150 μL/well MSD reading buffer (Meso Scale Discovery catalog number R92TC-2) was added. The plates were then analyzed by a MSD reader (Meso Scale Discovery, Model Quick Plex SQ 120). The data was then analyzed by software Prism 7.0 from GraphPad and the dose-depended IRAK4 degradation were fit using a three-parameter logistic equation to calculate DC50.
The letter codes for IRAK4 DC50 include: A (<0.01 μM); B (0.01-0.05 μM); C (0.05-0.1 μM); D (0.1-0.2 μM); and E (>0.2 μM).

SMILES	DC50
Cn1c(=O)n(C2CCC(=O)NC2=O)c2cccc(N3C[C@@H]4C[C@H]3CN4C[C@H]3CC[C@H](n4cc5cc(NC(=O)c6cccc(C(F)(F)F)n6)ccc5n4)CC3)c21 (stereo partly shown) [I-423]	< 10 nM
COc1cc(NC(=O)c2cccc(C(F)(F)F)n2)cc2cn([C@H]3CC[C@H](CN4CCC(c5cccc6c5n(C)c(=O)n6C5CCC(=O)NC5=O)CC4)CC3)nc12 (stereo partly shown) [I-176]	< 10 nM
Cn1c(=O)n(C2CCC(=O)NC2=O)c2cccc(N3CCN(C[C@H]4CC[C@H](n5cc6cc(NC(=O)c7cccc(C(F)(F)F)n7)c(N7CCC7)cc6n5)CC4)CC3)c21 (stereo partly shown) [I-387]	10 to 50 nM
Cn1c(=O)n(C2CCC(=O)NC2=O)c2cccc(N3C[C@@H]4C[C@H]3CN4C[C@H]3CC[C@H](n4cc5cc(NC(=O)c6cccc(C(F)(F)F)n6)c(C(C)(C)O)cc5n4)CC3)c21 (stereo partly shown) [I-225]	< 10 nM
Cc1cc2nn([C@H]3CC[C@H](CN4CCN(c5cccc6c5n(C)c(=O)n6C5CCC(=O)N(C)C5=O)CC4)CC3)cc2cc1NC(=O)c1cccc(C(F)(F)F)n1 (stereo partly shown) [I-404]	> 200 nM
COc1cc2nn([C@H]3CC[C@H](CN4CCCN(c5cccc6c5n(C)c(=O)n6C5CCC(=O)NC5=O)CC4)CC3)cc2cc1NC(=O)c1cccc(C(F)(F)F)n1 (stereo partly shown) [I-255]	< 10 nM
COc1cc2nn([C@H]3CC[C@H](CN4CCN(c5cccc6c5n(C)c(=O)n6C5CCC(=O)NC5=O)CC4)CC3)cc2cc1NC(=O)c1ccnc(C(F)(F)F)n1 (stereo partly shown) [I-298]	< 10 nM
COc1cc2nc([C@H]3C[C@H](CN4CCC(c5cccc6c5n(C)c(=O)n6C5CCC(=O)NC5=O)CC4)C3)sc2cc1NC(=O)c1cccc(C(F)(F)F)n1 (stereo partly shown) [I-235]	50 to 100 nM
Cc1ccc2c(c1C1CCN(C[C@H]3CC[C@H](n4cc5cc(NC(=O)c6cccc(C(F)(F)F)n6)c(Cl)cc5n4)CC3)CC1)n(C)c(=O)n2C1CCC(=O)NC1=O (stereo partly shown) [I-73]	10 to 50 nM
COc1cc2nn([C@H]3CC[C@H](CN(C)C4CCN(c5cccc6c(N7CCC(=O)NC7=O)cncc56)CC4)CC3)cc2cc1NC(=O)c1cccc(C(F)(F)F)n1 [I-96]	< 10 nM
O=C1CCN(c2cncc3c(C4CCN(C[C@H]5CC[C@H](n6cc7cc(NC(=O)c8cccc(C(F)(F)F)n8)c(C(F)F)cc7n6)CC5)CC4)cccc23)C(=O)N1 [I-293]	< 10 nM
Cc1cccc(C(=O)Nc2cc3sc([C@H]4CC[C@H](C(=O)N5CCN(CCCNc6cccc7c6C(=O)N(C6CCC(=O)NC6=O)C7=O)CC5)CC4)nc3cc2C(C)(C)O)n1 (stereo partly shown) [I-465]	< 10 nM
Cc1ccc2c(c1C1CCN(C[C@H]3CC[C@H](n4cc5cc(NC(=O)c6cccc(C(F)(F)F)n6)ncc5n4)CC3)CC1)n(C)c(=O)n2C1CCC(=O)N(C)C1=O (stereo partly shown) [I-162]	> 200 nM
CC(C)(O)c1cc2nc([C@H]3CC[C@H](C(=O)N4CCC5(CC4)CC(CCNc4cccc6c4C(=O)N(C4CCC(=O)NC4=O)C6=O)C5)CC3)sc2cc1NC(=O)c1cccc(C#N)n1 (stereo partly shown) [I-430]	100 to 200 nM
CC(C)(O)c1cc2nc([C@H]3CC[C@H](CN4CCO[C@H](CCCNc5cccc6c5C(=O)N(C5CCC(=O)NC5=O)C6=O)C4)CC3)sc2cc1NC(=O)c1cncc(C#N)c1 (stereo partly shown) [I-455]	> 200 nM
CC(C)(O)c1cc2nc([C@H]3CC[C@H](CN4CCO[C@H](CCCNc5cccc6c5C(=O)N(C5CCC(=O)NC5=O)C6=O)C4)CC3)sc2cc1NC(=O)c1cccc(C#N)n1 (stereo partly shown) [I-442]	50 to 100 nM
COc1cc2nn([C@H]3CC[C@H](CN4CCCN(c5cccc6c(N7CCC(=O)NC7=O)cncc56)CC4)CC3)cc2cc1NC(=O)c1cncc(C#N)c1 [I-289]	> 200 nM
COc1cc2nc([C@H]3CC[C@H](CN4CC5(CC(CCNc6cccc7c6C(=O)N(C6CCC(=O)NC6=O)C7=O)C5)C4)CC3)n(C)c2cc1NC(=O)c1cccc(C(F)(F)F)n1 (stereo partly shown) [I-3]	50 to 100 nM
Cn1c(=O)n(C2CCC(=O)NC2=O)c2ccc(F)c(C3CCN(C[C@H]4C[C@H](n5cc6cc(NC(=O)c7cccc(C(F)(F)F)n7)ncc6n5)C4)CC3)c21 (stereo partly shown) [I-147]	50 to 100 nM
CC(C)(O)c1cc2nc([C@H]3CC[C@H](C(=O)N4CCN(CCNc5cccc6c5C(=O)N(C5CCC(=O)NC5=O)C6=O)CC4)CC3)sc2cc1NC(=O)c1cncc(C#N)c1 (stereo partly shown) [I-431]	> 200 nM

SMILES	DC50
COc1ccc2c(c1C1CCN(C[C@H]3CC[C@H](n4cc5cc(NC(=O)c6cccc(C(F)(F)F)n6)ccc5n4)CC3)CC1)n(C)c(=O)n2C1CCC(=O)NC1=O (stereo partly shown) [I-75]	10 to 50 nM
COc1cc2nc([C@H]3CC[C@H](CN4CC5(CC(CCNc6cccc7c6C(=O)N(C6CCC(=O)NC6=O)C7=O)C5)C4)CC3)cn2cc1NC(=O)c1cccc(C(F)(F)F)n1 (stereo partly shown) [I-10]	50 to 100 nM
Cn1c(=O)n(C2CCC(=O)NC2=O)c2cccc(N3CCN(C[C@H]4CC[C@H](n5cc6cc(NC(=O)c7cccc(C(F)(F)F)n7)c(C#N)cc6n5)CC4)CC3)c21 (stereo partly shown) [I-363]	< 10 nM
CC(C)(O)c1cc2nn([C@H]3CC[C@H](CN4C5CC4CN(c4cccc6c(N7CCC(=O)NC7=O)cncc46)C5)CC3)cc2cc1NC(=O)c1cccc(C(F)(F)F)n1 [I-228]	< 10 nM
CC(C)Nc1cc(-n2ccc3cc(C#N)cnc32)ncc1-c1cn([C@H]2CC[C@H](CN3CCN(c4cccc5c(N6CCC(=O)NC6=O)cncc45)CC3)CC2)nn1 [I-197]	< 10 nM
Cc1ccc2c(c1C1CCN(C[C@H]3CC[C@H](n4cc5cc(NC(=O)c6cccc(C(F)(F)F)n6)c(F)cc5n4)CC3)CC1)n(C)c(=O)n2C1CCC(=O)NC1=O (stereo partly shown) [I-67]	10 to 50 nM
COc1cc2nn([C@H]3CC[C@H](CN4CCN(c5cccc6c(N7CCC(=O)NC7=O)cncc56)[C@H](C)C4)CC3)cc2cc1NC(=O)c1cccc(C(F)(F)F)n1 [I-256]	< 10 nM
COc1cc2nn([C@H]3CC[C@H](CN4CCN(c5ccc6c(N7CCC(=O)NC7=O)cncc6c5)CC4)CC3)cc2cc1NC(=O)c1cccc(C(F)(F)F)n1 [I-208]	< 10 nM
Cc1ccc2c(c1C1CCN(C[C@H]3C[C@H](n4cc5cc(NC(=O)c6cccc(C(F)(F)F)n6)c(Cl)cc5n4)C3)CC1)n(C)c(=O)n2C1CCC(=O)NC1=O (stereo partly shown) [I-143]	50 to 100 nM
COc1cc2nn([C@H]3CC[C@H](CN4CCC(c5cccc6c5n(C)c(=O)n6C5CCC(=O)NC5=O)CC4)CC3)cc2cc1NC(=O)c1cnc(C)c(Cl)c1 (stereo partly shown) [I-134]	> 200 nM
COc1cncc(C(=O)Nc2cc3sc([C@H]4CC[C@H](CN(C)CCCNc5cccc6c5C(=O)N(C5CCC(=O)NC5=O)C6=O)CC4)nc3cc2OC)c1 (stereo partly shown) [I-450]	> 200 nM
COc1cc2nn([C@H]3CC[C@H](CN4CCN(c5ccc(N6CCC(=O)NC6=O)cc5)CC4)CC3)cc2cc1NC(=O)c1cccc(C(F)(F)F)n1 [I-312]	> 200 nM
C[C@@H]1CN(C[C@H]2CC[C@H](n3cc4cc(NC(=O)c5cccc(C(F)(F)F)n5)c(C(C)(C)O)cc4n3)CC2)CCN1c1cccc2c(N3CCC(=O)NC3=O)cncc12 [I-257]	< 10 nM
CC(C)(O)c1cc2nc([C@H]3CC[C@H](C(=O)N4CCC(CCNc5cccc6c5C(=O)N(C5CCC(=O)NC5=O)C6=O)CC4)CC3)sc2cc1NC(=O)c1cccc(C(F)(F)F)n1 (stereo partly shown) [I-491]	50 to 100 nM
Cn1c(=O)n(C2CCC(=O)NC2=O)c2cccc(C3CCN(C[C@H]4CC[C@H](n5cc6cc(NC(=O)c7cccc(C(F)(F)F)n7)c(C#N)cc6n5)CC4)CC3)c21 (stereo partly shown) [I-189]	< 10 nM
Cn1c(=O)n(C2CCC(=O)NC2=O)c2cccc(C3CCN(C[C@H]4CC[C@H](n5cc6cc(NC(=O)c7cccc(C(F)(F)F)n7)c(C7CC7)cc6n5)CC4)CC3)c21 (stereo partly shown) [I-69]	< 10 nM
COc1cc2nn([C@H]3C[C@H](CN4CCC(c5c(F)ccc6c5n(C)c(=O)n6C5CCC(=O)NC5=O)CC4)C3)cc2cc1NC(=O)c1cccc(C(F)(F)F)n1 (stereo partly shown) [I-141]	10 to 50 nM
CC(C)Nc1cc(-c2ccc3cc(C#N)cnn23)ncc1C(=O)N[C@H]1CC[C@H](CN2CCC(c3cccc4c3n(C)c(=O)n4C3CCC(=O)NC3=O)CC2)CC1 (stereo partly shown) [I-183]	< 10 nM
COc1ccc2c(c1N1CCN(C[C@H]3CC[C@H](n4cc(-c5cnc(-n6ccc7cc(C#N)cnc76)cc5NC(C)C)nn4)CC3)CC1)n(C)c(=O)n2C1CCC(=O)NC1=O (stereo partly shown) [I-295]	10 to 50 nM
Cn1c(=O)n(C2CCC(=O)NC2=O)c2ccc(C3CCN(C[C@H]4CC[C@H](n5cc6cc(NC(=O)c7cccc(C(F)(F)F)n7)ccc6n5)CC4)CC3)c(Cl)c21 (stereo partly shown) [I-180]	> 200 nM
